For 1 molecule, IC50 results are on record in article PMC3583241, “Hit identification of IKKβ natural product inhibitor” (BMC Pharmacology & Toxicology, 2013).

The target in the experiment is T1, IKKβ (Homo sapiens, UniProt O14920).
T1 construct: gene IKBKB; human recombinant IKKβ
T1 sequence (O14920 1-756): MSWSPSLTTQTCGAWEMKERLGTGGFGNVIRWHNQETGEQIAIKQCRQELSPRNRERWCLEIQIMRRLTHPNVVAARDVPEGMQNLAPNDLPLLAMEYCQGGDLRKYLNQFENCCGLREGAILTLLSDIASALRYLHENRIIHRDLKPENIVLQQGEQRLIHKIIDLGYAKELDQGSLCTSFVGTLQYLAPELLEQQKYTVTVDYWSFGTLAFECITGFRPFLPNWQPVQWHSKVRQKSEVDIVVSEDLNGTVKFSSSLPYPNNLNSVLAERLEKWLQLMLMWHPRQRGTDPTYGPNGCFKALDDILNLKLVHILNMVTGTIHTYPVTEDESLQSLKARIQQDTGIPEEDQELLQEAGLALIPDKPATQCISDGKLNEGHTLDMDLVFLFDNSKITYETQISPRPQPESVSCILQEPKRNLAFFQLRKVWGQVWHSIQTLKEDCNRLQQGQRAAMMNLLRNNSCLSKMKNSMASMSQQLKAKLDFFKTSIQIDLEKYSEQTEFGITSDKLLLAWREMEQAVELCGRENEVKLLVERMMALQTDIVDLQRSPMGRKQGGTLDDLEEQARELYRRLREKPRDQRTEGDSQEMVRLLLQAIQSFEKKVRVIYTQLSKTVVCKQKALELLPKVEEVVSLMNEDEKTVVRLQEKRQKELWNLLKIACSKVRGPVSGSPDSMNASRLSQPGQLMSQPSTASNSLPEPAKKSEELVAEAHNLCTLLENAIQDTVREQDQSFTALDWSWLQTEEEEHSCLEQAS
Briefly: ELISA-based K-LISA IKKβ kinase assay with GST-IκBα substrate. The experiment is classed as biochemical.

Each structure is given as a SMILES string.

In turn, `O=C(O)c1ccccc1C(=O)NCCC(c1ccccc1)c1ccco1` (stereo not shown) [compound 1, benzoic acid derivative (1)] registered an IC50 of roughly 50 µM.
